Experimental data taken from patent US20110098556A1, “Computer-Based Method And System For Imaging-Based Dynamic Function Evaluation Of An Organ” (priority 2008, published 2011).
Several values for one entry are separate records, joined by “and”; a condition that tells them apart may be missing. Equal entries are not always repeated.

Tests used:
[1] = tested on: liver; assay: T1-weighted Gd-EOB-DTPA-enhanced DHCE-MRI liver function test, healthy volunteers; type: in vivo, human; design: key to median HEF / HEF, mean / HEF, median / HEF, max / HEF: ratio of extrapolated hepatic retention curve to vascular peak of HE curve; conditions: for median HEF: healthy volunteers; for HEF, mean / HEF, max / HEF, median: n=20 healthy volunteers
Protocol: Deconvoluted liver response curves were analyzed with respect to HEF and RBF. HEF was described by Brown et al using Tc-99-disofenin scintigraphy as a measurement of hepatic extraction efficiency, and could be understood as the percentage of tracer that would have been extracted if the tracer had been injected directly into the afferent blood supply of the liver without subsequent recirculation. […] The HE curve can be divided into the vascular phase and the hepatocyte retention phase, which describes the hepatic extraction. We calculated HEF using a monoexponential fit to the HE-curve data points from 420 to 1800 seconds after the time of injection of the tracer. The starting point at 420 seconds was chosen after visual inspection of the deconvoluted HE curves. The fitted curve, the hepatic retention curve (HRC, a mono-exponentially decaying fitted curve), is then extrapolated back to the time of the vascular peak value, and HEF is defined as the ratio between the extrapolated HRC curve and the vascular peak of the HE curve (also shown in FIG. 3),
RBF, giving a relative measurement of blood flow in the liver, is described as the initial peak value of the HE curve. RBF values were normalized to the segment with the highest RBF, i.e. the segment with the highest RBF was set to 100%.
The input function was defined by a region of interest (ROI) placed in the hilar part of the portal vein. Due to patient motion, the input function ROI was adjusted in each dynamic acquisition so the voxels represent portal vein blood. Liver response function curves were defined by placing three ROIs in each liver segment (I to VIII with segment IV divided into IVa and IVb). The relative enhancement over time of the voxels in the ROI was regarded as the parenchymal response function for that ROI. Data points were interpolated using equidistant spacing (60 s) over the 90-minute time period. […] Care was taken to as far as possible to exclude major blood vessels and visible bile ducts when the ROIs were placed. Segments were defined and nomenclature adhered to as proposed by Strasberg SM. Terminology of liver anatomy and liver resections: coming to grips with hepatic Babel. J Am Coll Surg 1997; 184(4):413-434, which is incorporated herein by reference in its entirety. However, other segmentations may be used in other embodiments.
HEF and RBF were calculated for each ROI both with TSVD and FA+tail using specific in-house software written in MATLAB® (Mathworks, […], USA). Thus, each ROI yielded two values for HEF and RBF respectively. For TSVD, a static truncation threshold was set at c=0.07. A cosine function from 0 to π/2 with the initial height of the last point of x(t) and y(t) was added for the DA performed with FA, and the length of the tail was set to be three times the length of the total sampling period of 90 minutes. […]
To arrive at an estimation of the model parameters, an iterative method was used. After assigning starting values to kij and f the impulse response function h(t) was estimated through Eq 10, and an output function yout(t) was calculated through yout(t)=h(t) ? x(t)+f·x(t), using the input function x(t) from the portal vein as an estimate for the blood pool signal in Equation 7. The response function y(t) on the other hand was measured in a ROI in the liver parenchyma, and the parameters kij and f were determined by iteratively minimizing the squared difference diff=(y(t)−yout(t))^2, see FIG. 17.
For some response curves either T10, or both T5 and T10, were beyond the last measured time point, and no value was set. Tmax, T5 and T10 were measured in seconds.
where g(t) is the fitted curve and the fitting parameters c2 and TU describe contrast uptake, while c1 and TE describe the liver contrast excretion. Both TE and TU were calculated in minutes.
T1-weighted Gd-EOB-DTPA-enhanced DHCE-MRI was performed on 20 healthy volunteers, 10 men and 10 women, ages ranging from 22 to 45 years. […]

[2] = tested on: liver; assay: Gd-EOB-DTPA-enhanced DHCE-MRI in patients with primary biliary cirrhosis (PBC); type: in vivo, human
Protocol: (§1) T1-weighted Gd-EOB-DTPA-enhanced DHCE-MRI was performed on 20 healthy volunteers, 10 men and 10 women, and on patients with an established diagnosis of PBC. Routine serum liver function tests were performed at inclusion in the study on the healthy volunteers, and for the patients it was recorded from the most recent visit documented in their clinical charts. The healthy volunteers had no history of hepato-biliary disease, previous hepato-biliary surgery or alcohol abuse. All subjects were asked to be fasting for at least four hours prior to the examination. For each patient, relevant clinical data was documented and together with the results from the liver function tests they were used to calculate the CPS, Mayo risk score and MELD score.
(§2) T1-weighted Gd-EOB-DTPA-enhanced DHCE-MRI was performed using a Philips Intera 1.5T scanner (Best, Holland), with a Philips four-channel SENSE body coil according to the protocol in Example 1. Deconvolutional analysis was performed using truncated singular value decomposition (TSVD). HEF and irBF were calculated as described above. […] The Mann-Whitney U-test was used for test of significance and the significance level was set to […]. All segments in every patient and controls yielded an observation and in the statistical analysis, all observations were regarded as independent observations, even if they originated from one individual. Thus, the study yielded 180 observations for each of the abovementioned parameters from the controls, and 108 observations from PBC patients.

[3] = tested on: liver; assay: Gd-EOB-DTPA-enhanced MRI in patients with primary sclerosing cholangitis (PSC); type: in vivo, human; design: HEF: unit not given here
Protocol: as §1, with “MRI” for “DHCE-MRI”, “PSC.” for “PBC.”
as §2, with “MRI” for “DHCE-MRI”, “protocol as outlined” for “protocol”, “PSC” for “PBC”

[4] = in vivo; cited from earlier work
[5] = median for healthy controls (n = 180)
[6] = individual PBC patient, median of 9 segmental values
[7] = median for PBC patients (n = 108)
[8] = individual PSC patient, median of 9 segmental values
[9] = median for PSC patients (segments n = 108)

For `CCOc1ccc(CC(CN(CCN(CC(=O)[O-])CC(=O)[O-])CC(=O)[O-])N(CC(=O)[O-])CC(=O)[O-])cc1.[Gd+3].[Na+].[Na+]` (stereo not drawn) [Gd-EOB-DTPA, Gadolinium ethoxybenzyl diethylenetriaminepentaacetic acid], the “signal intensity half-time (TE)” value ([1]; compared with total scan time) was > 90 min, the “mean HEF” value ([1]; example 1, healthy volunteers) was “above 20%” and the “hepatic extraction fraction (HEF)” value ([1]; example curve of FIG. 3, FA+tail) was “approximately 17%”. The “median HEF” value ([1]; left hemiliver, FA+tail) was 0.194, the “median HEF” value ([1]; left hemiliver, TSVD) was 0.196 and the HEF ([1]; median for 20 healthy controls (n = 180 segments), TSVD) was 0.201. It also gave a T5 [1, 5] of 1600 s, a T10 [1, 5] of 2295 s and a Tmax [1, 5] of 2000 s. The “HEF, mean” value ([1]; 180 segmental values, deconvolution by TSVD) was 0.215, the “HEF, max” value ([1]; FA + tail) was 0.440 and the “HEF, median” value ([1]; FA + tail) was 0.210. For the same compound, the “HEF, max” value ([1]; TSVD) was 0.436, the “HEF, median” value ([1]; TSVD) was 0.208 and the “HEF, mean” value ([1]; deconvolution by FA + tail) was 0.217. The “median HEF” value ([1]; right hemiliver, FA+tail) was 0.224, the “median HEF” value ([1]; right hemiliver, TSVD) was 0.218 and the “T5 (time from Tmax to five percent decay)” value [2, 6] was 1460 s and 1090 s and 2440 s and 1980 s and 1490 s and 1300 s and 2040 s and 1480 s and 1540 s and 810 s and 240 s and 940 s. For the same compound, the “T10 (time from Tmax to ten percent decay)” value [2, 6] was 1830 s and 1680 s and 2280 s and 2040 s and 3030 s and 1950 s and 2880 s and 2460 s and 2480 s and 1800 s and 940 s and 1440 s, the “Tmax (time to maximum intensity)” value [2, 6] was 2900 s and 2100 s and 2200 s and 4000 s and 2600 s and 3600 s and 1360 s and 2400 s and 480 s and 200 s and 3100 s and the HEF ([2]; individual PBC patient, median of 9 segmental values, TSVD) was 0.163 (2×) and 0.225 and 0.302 and 0.150 and 0.093 and 0.226 and 0.199 and 0.155 and 0.106 and 0.047 and 0.152. The “TE (excretion half-time)” value ([2]; individual PBC patient, median of 9 segments, bi-exponential fit) was 3780 min and 1591 min and 4791 min and 6961 min and 4241 min and 1180 min and 8011 min and 2130 min and 2481 min and 1141 min and 2830 min and 1281 min, the T5 [2, 7] was 1440 s and the T10 [2, 7] was 1920 s. The TE [2, 7] was 2850 min, the Tmax [2, 7] was 2460 s and the HEF ([2]; median for PBC patients (n = 108 segments)) was 0.161. The T5 [3, 8] was 1720 s and 980 s and 1620 s and 940 s and 1420 s and 1380 s and 1170 s and 1400 s and 1250 s and 1500 s and 1340 s and 2140 s, the T10 [3, 8] was 1980 s and 1560 s and 1950 s and 1720 s and 2645 s and 1840 s and 2340 s and 2600 s and 2050 s and 2490 s and 2460 s and 3540 s and the Tmax [3, 8] was 3400 s and 2500 s and 2800 s and 1620 s and 1860 s and 1800 s and 2880 s and 1280 s and 2200 s and 1680 s and 3800 s. The HEF ([3]; individual PSC patient, median of 9 segmental values, TSVD) was 0.158 and 0.213 and 0.221 and 0.307 and 0.140 and 0.220 and 0.159 and 0.136 (2×) and 0.123 and 0.174 and 0.240, the TE ([3]; individual PSC patient, median of 9 segments, bi-exponential fit) was 1427 min and 110 min and 184 min and 102 min and 244 min and 211 min and 251 min and 203 min and 147 min and 128 min and 341 min and 452 min and the HEF [3, 9] was 0.176. It also gave a T5 [3, 9] of 1340 s, a T10 [3, 9] of 2050 s and a TE [3, 9] of 204 min. The Tmax [3, 9] was 2260 s, the “fraction eliminated by renal excretion (glomerular filtration)” value [4] was 50% and the hepatic clearance [4] was “about 50%”.
